Measured values: PMC6657668, “Porcine Beta-Defensin 2 Provides Protection Against Bacterial Infection by a Direct Bactericidal Activity and Alleviates Inflammation via Interference With the TLR4/NF-κB Pathway” (Frontiers in Immunology, 2019)
Where a SMILES comes first, the peptide text is derived from it.

What was measured:
[1] = parameters: method as in 2 sources, one per row (each row's own in cited_ref): ref [13] = [13]; PMID 27383796; doi:10.5713/ajas.16.0207; 13. Xu J Zhong F Zhang Y Zhang J Huo S Lin H . Construction of Bacillus subtilis strain engineered for expression of porcine beta-defensin-2/cecropin P1 fusion antimicrobial peptides and its growth-pr ||| ref [15] = [15]; PMID 26707031; doi:10.1111/asj.12540; 15. Tang Z Xu L Shi B Deng H Lai X Liu J . Oral administration of synthetic porcine beta-defensin-2 improves growth performance and cecal microbial flora and down-regulates the expression of intestina; details: cited from earlier work
[2] = test system: JNK; experiment: Western blot of JNK and p-JNK in RAW 264.7 cells; type: cell-based, mouse; details: LPS 30 min with various concentrations of PBD-2 (Figure S4)
Protocol: (§1) RAW 264.7 cells were treated with LPS (1 μg/ml) alone or together with PBD-2 (10 μg/mL). […] Proteins were firstly analyzed with SDS-PAGE and then electro-transferred onto a PVDF (#ISEQ00010, Biosharp®, Beijing, China) membrane. The PVDF membrane was blocked with 1/100 bovine serum albumin (BSA, #V900933-100G, VETEC, Sigma-Aldrich®, St. Louis, MO, USA) at 10 μg/ml at 37°C for 2 h, washed with PBST five times, incubated with the antisera against p-p65 (# 3033), p65 (# 4764), p-ERK (# 4370), ERK (# 4695), p-p38 (# 4511), p38 (# 8690), p-JNK (# 4668), JNK (# 9258) (Cell Signaling Technology®, Danvers, MA, USA), and β-actin (# AA128, Beyotime®, Shanghai, China) at 2 μg/ml at 37°C for 2 h and washed five times again. The PVDF membrane was subsequently incubated with 1 μg/ml secondary antibody, namely, goat anti-rabbit IgG (# 7074S, Cell Signaling Technology®, Danvers, MA, USA), at 37°C for 2 h and washed five times. Lastly, immune-reactive bands were detected using an ECF Western blot system (Tanon 5200 Multi, Shanghai, China) and quantified using AlphaImager 2200 analysis software.
(§2) Supplementary file Image_4.TIF: Figure S4 Effects of PBD-2 on ERK, p38, and JNK signaling pathways. Cells were treated with LPS for 30 min with or without various concentrations of PBD-2. […] The signal intensity of each band was quantified (B–D). […]

[3] = test system: S. Typhimurium; parameters: species or system Salmonella Typhimurium 14028 (in mice); details: mouse, in vivo, po
[4] = transgenic expression; ref [24]; cited from earlier work
[5] = test system: S. Typhimurium; experiment: Bactericidal activity assay (colony counting); details: 5000 CFU, 1 h, 37°C, n = 6
Protocol: S. Typhimurium cells were cultured to mid-log phase (OD600nm = 0.7) in TSB. The cultures were centrifuged for 10 min at 1,000 × g, and the cell pellets were diluted in assay medium (10 mM phosphate, pH 7.0, with 1/100 TSB). The antimicrobial activities of PBD-2, TG serum and tissue homogenates were determined by colony counting assay. The mice serum, caecum, colon, or duodenum homogenates were heat inactivated at 56°C for 20 min to exclude the possible effect of complement in tissues. As a control, PBD-2 solution in PBS (50 μg/ml) was also heat-treated at 56°C for 20 min. Afterwards, 5000 CFUs of S. Typhimurium were mixed with 100 μl of each sample in a centrifuge tube at 37°C for 1 h. After incubation, 10 serial dilutions from 10 to 1,000-fold in TSB were conducted, and the diluted bacterial cultures were transferred onto TSA plates and incubated at 37°C for 24 h. The numbers of bacterial CFUs were recorded.

[6] = test system: BSA; experiment: Interaction with BSA (control), far-Western blot; type: binding, bovine; details: PBD-2 10 μg/ml, 37°C, 2 h
Protocol: TLR4 and BSA proteins as a control were subject to SDS-PAGE and electro-transferred onto a PVDF membrane. The PVDF membrane was blocked with 10 μg/ml BSA in PBST at 37°C for 2 h, washed five times with PBST and incubated with PBST that contained 10 μg/ml PBD-2 or 10 μg/ml BSA as a control at 37°C for 2 h. After the membranes were washed, the PVDF membrane was incubated with anti-PBD-2 antisera (with a titer 1:500,000) at 37°C for 2 h and washed five times with PBST. The membrane was then incubated with the secondary antibodies, namely, goat anti-mouse IgG (# AS003, ABclonal®, Wuhan, China), at 37°C for 2 h and washed five times with PBST. Lastly, immune-reactive bands were detected using an ECF Western blot system (Tanon 5200 Multi, Shanghai, China).

[7] = test system: RAW 264.7 cells; experiment: Cytokine levels of RAW 264.7 cells after treatment with LPS (ELISA), with or without pathway inhibitor; type: cell-based, mouse; details: for IL-1β level / IL-6 level / TNF-α level: LPS 1 μg/ml
Protocol: RAW 264.7 cells and RAW 264.7 cells stably expressing PBD-2 were pre-treated with S. Typhimurium at MOI = 10:1 for 1 h or with LPS (1 μg/ml) for 16 h, washed with PBS twice and incubated with RPMI 1640 that contained PBS or PBD-2 (10 μg/mL) for 16 h. RAW 264.7 cells stably expressing PBD-2 were maintained in RPMI 1640 that contained PBS for 16 h (n = 6 for each group). The expression levels of proinflammatory cytokines in the cell culture supernatant were determined through ELISA in accordance with the manufacturer's instruction.
In the inhibition assay, RAW 264.7 cells were pre-treated with 4 μg/ml NF-κB inhibitor (Celastrol, # ant-cls, InvivoGen®, San Diego, CA, USA) or 1 μg/ml TLR4 inhibitor (CLI-095, # tlrl-cli95, InvivoGen®, San Diego, CA, USA) for 1 h. Subsequently, RAW 264.7 cells were treated with LPS (1 μg/ml) alone or together with PBD-2 (10 μg/mL) for 16 h (n = 6 each group). RAW 264.7 cells treated with PBS were used as control. The levels of the cytokines in the supernatant of the cells were detected through ELISA.

[8] = test system: p38; experiment: Western blot of p38 and p-p38 in RAW 264.7 cells; type: cell-based, mouse; details: LPS 30 min with various concentrations of PBD-2 (Figure S4)
Protocol: as §1, §2

[9] = PBD-2 expressed by RAW 264.7–PBD-2 cells, n = 6
[10] = synthetic PBD-2 10 μg/mL with LPS 1 μg/ml, 16 h, after CLI-095 1 μg/ml, n = 6
[11] = synthetic PBD-2 10 μg/mL with LPS 1 μg/ml, 16 h, after Celastrol 4 μg/ml, n = 6
[12] = synthetic PBD-2 10 μg/mL, 16 h, n = 6

In the case of `CC[C@H](C)[C@H](NC(=O)[C@@H]1CSSC[C@@H]2NC(=O)[C@@H]3CCCN3C(=O)[C@H](CO)NC(=O)[C@H](Cc3ccccc3)NC(=O)[C@H](CC(N)=O)NC(=O)[C@@H]3CSSC[C@H](NC(=O)[C@H]([C@@H](C)O)NC(=O)CNC(=O)[C@H](CCC(=O)O)NC(=O)[C@H]([C@@H](C)CC)NC(=O)[C@H](CCCNC(=N)N)NC(=O)[C@H](CC(N)=O)NC(=O)[C@H](Cc4ccccc4)NC(=O)[C@H](CC(C)C)NC(=O)[C@@H]4CCCN4C2=O)C(=O)N[C@@H](Cc2ccc(O)cc2)C(=O)N[C@@H](CO)C(=O)NCC(=O)N[C@@H](CCCCN)C(=O)N[C@@H](C)C(=O)N[C@@H](CCCCN)C(=O)N[C@@H](CSSC[C@H](NC(=O)[C@@H](NC(=O)[C@H](Cc2ccc(O)cc2)NC(=O)[C@H](Cc2c[nH]cn2)NC(=O)[C@@H](N)CC(=O)O)[C@@H](C)CC)C(=O)N[C@@H](C)C(=O)N[C@@H](CCCCN)C(=O)N[C@@H](CCCCN)C(=O)NCC(=O)NCC(=O)N[C@@H]([C@@H](C)O)C(=O)N3)C(=O)N1)C(=O)N[C@@H](CCCNC(=N)N)C(=O)O` [PBD-2, Porcine beta-defensin 2] (HELM PEPTIDE1{D.H.Y.I.C.A.K.K.G.G.T.C.N.F.S.P.C.P.L.F.N.R.I.E.G.T.C.Y.S.G.K.A.K.C.C.I.R}$PEPTIDE1,PEPTIDE1,5:R3-34:R3|PEPTIDE1,PEPTIDE1,12:R3-27:R3|PEPTIDE1,PEPTIDE1,17:R3-35:R3$$$V2.0; N-terminus and C-terminus assumed), the “growth performance, caecum microbial flora, inflammatory cytokine expression” value ([1]; oral administration, pigs, ref [15]) is given as “improve growth performance and caecum microbial flora and reduce the expression of inflammatory cytokines in pigs”, the “growth and diarrhea in piglets” value ([1]; ref [13]) is given as “promote growth, alleviate diarrhea in piglets” and the “LPS-induced phosphorylation of JNK” value [2] is given as “did not affect the LPS-induced phosphorylation of ERK, p38, and JNK”. The “survival at lower bacterial dose” value [3] was “all the WT and TG mice survived until the end of the experiments”, the survival rate [3] was 70% and the “expression level of PBD-2 in the TG mice” value [4] was ≤ 10^4 ng/g tissue. For the same molecule, the “number of survived bacteria, caecum homogenate” value ([5]; heat-inactivated (56°C, 20 min) caecum homogenate of PBD-2 TG mice vs WT) was “the number of the survived bacteria in the serum and tissue homogenates of the WT mice was significantly higher than that in the serum and tissue homogenates of the TG mice (p < 0.05)”, the “number of survived bacteria, colon homogenate” value ([5]; heat-inactivated (56°C, 20 min) colon homogenate of PBD-2 TG mice vs WT) was “the number of the survived bacteria in the serum and tissue homogenates of the WT mice was significantly higher than that in the serum and tissue homogenates of the TG mice (p < 0.05)” and the “number of survived bacteria, serum” value ([5]; heat-inactivated (56°C, 20 min) serum of PBD-2 TG mice vs WT) was “the number of the survived bacteria in the serum and tissue homogenates of the WT mice was significantly higher than that in the serum and tissue homogenates of the TG mice (p < 0.05)”. For the same molecule, the “binding to BSA on PVDF membrane” value [6] was “not to BSA”, the IL-1β level [7, 9] was “significantly reduced in RAW 264.7 cells supplemented with PBD-2 or in the RAW 264.7–PBD-2 cells (p < 0.05)” and the IL-6 level [7, 9] was “significantly reduced in RAW 264.7 cells supplemented with PBD-2 or in the RAW 264.7–PBD-2 cells (p < 0.05)”. The TNF-α level [7, 9] was “significantly reduced in RAW 264.7 cells supplemented with PBD-2 or in the RAW 264.7–PBD-2 cells (p < 0.05)”, the “cytokine secretion, PBD-2 itself” value ([7]; PBD-2 without stimulus (Figures 5A–C)) was “did not affect cytokine secretion” and the “inflammatory responses of RAW 264.7 cells expressing PBD-2 versus supplemented with synthetic PBD-2” value ([7]; S. Typhimurium or LPS (Figures 5A–C)) was “lower than those of the cells supplemented with synthetic PBD-2”. The “secretion of IL-1β in the presence of TLR4 inhibitor” value [7, 10] was “did not affect the secretion of these cytokines in the presence of TLR4 inhibitor (NS, p > 0.05)”, the “secretion of IL-6 in the presence of TLR4 inhibitor” value [7, 10] was “did not affect the secretion of these cytokines in the presence of TLR4 inhibitor (NS, p > 0.05)” and the “secretion of TNF-α in the presence of TLR4 inhibitor” value [7, 10] was “did not affect the secretion of these cytokines in the presence of TLR4 inhibitor (NS, p > 0.05)”. For the same molecule, the “secretion of IL-1β in the presence of NF-κB inhibitor” value [7, 11] was “did not affect the secretion of these cytokines in the presence of NF-κB inhibitor (NS, p > 0.05)”, the “secretion of IL-6 in the presence of NF-κB inhibitor” value [7, 11] was “did not affect the secretion of these cytokines in the presence of NF-κB inhibitor (NS, p > 0.05)” and the “secretion of TNF-α in the presence of NF-κB inhibitor” value [7, 11] was “did not affect the secretion of these cytokines in the presence of NF-κB inhibitor (NS, p > 0.05)”. For the same molecule, the IL-1β level [7, 12] was “significantly reduced in RAW 264.7 cells supplemented with PBD-2 or in the RAW 264.7–PBD-2 cells (p < 0.05)”, the IL-6 level [7, 12] was “significantly reduced in RAW 264.7 cells supplemented with PBD-2 or in the RAW 264.7–PBD-2 cells (p < 0.05)” and the TNF-α level [7, 12] was “significantly reduced in RAW 264.7 cells supplemented with PBD-2 or in the RAW 264.7–PBD-2 cells (p < 0.05)”. The “LPS-induced phosphorylation of p38” value [8] was “did not affect the LPS-induced phosphorylation of ERK, p38, and JNK”.
